Experimental data reported in ChEMBL document CHEMBL5346923, “Novel pyridinium cationic pleuromutilin analogues overcoming bacterial multidrug resistance” (Eur J Med Chem, 2023).
Active and inactive are the calls of the source. The rule behind the calls is not given here.

What was measured:
Streptococcus suis = assay: Antibacterial activity against clinical isolate Streptococcus suis harbouring IsaE and ErmA gene assessed as inhibition of bacterial growth measured after 24 hrs by MH broth based assay; assay type: functional
Staphylococcus aureus [1] = assay: Antibacterial activity against clinical isolate Staphylococcus aureus harbouring cfr and erm C gene assessed as inhibition of bacterial growth measured after 24 hrs by MH broth based assay; assay type: functional
Streptococcus pneumoniae [2] = assay: Antibacterial activity against clinical isolate Streptococcus pneumoniae harbouring ermB gene assessed as inhibition of bacterial growth measured after 24 hrs by MH broth based assay; assay type: functional
Enterococcus hirae = assay: Antibacterial activity against clinical isolate Enterococcus hirae assessed as inhibition of bacterial growth measured after 24 hrs by MH broth based assay; assay type: functional
Staphylococcus aureus [3] = assay: Antibacterial activity against clinical isolate multi-drug resistant Staphylococcus aureus sal assessed as reduction in log10 CFU at 1 times of MIC measured after 8 hrs by time-kill assay; assay type: functional, organism-based
Staphylococcus aureus [4] = assay: Antibacterial activity against 2 times of MIC treated methicillin-resistant Staphylococcus aureus […] assessed as post-antibiotic sub-MIC effect by measuring time required for increase in log10 CFU/ml of bacteria at 0.5 times of MIC incubated for 1 hr by MH broth based assay; assay type: functional
Enterococcus = assay: Antibacterial activity against vancomycin-resistant Enterococcus ATCC 700221 assessed as inhibition of bacterial growth measured after 24 hrs by MH broth based assay; assay type: functional
Klebsiella pneumoniae [5] = assay: Antibacterial activity against clinical isolate Klebsiella pneumoniae harbouring blaKpc gene assessed as inhibition of bacterial growth measured after 24 hrs by MH broth based assay; assay type: functional
Staphylococcus aureus [6] = assay: Antibacterial activity against methicillin-resistant Staphylococcus aureus ATCC 43300 assessed as reduction in log10 CFU at 3 times of MIC measured after 8 hrs by time-kill assay; assay type: functional
Staphylococcus aureus [7] = assay: Antibacterial activity against Staphylococcus aureus ATCC 29213 assessed as inhibition of bacterial division at 4 times of MIC by SEM analysis; assay type: functional, organism-based
Streptococcus parasuis = assay: Antibacterial activity against clinical isolate Streptococcus parasuis harbouring optrA gene assessed as inhibition of bacterial growth measured after 24 hrs by MH broth based assay; assay type: functional
Staphylococcus aureus [8] = assay: Antibacterial activity against Staphylococcus aureus ATCC 29213 assessed as induction of cell membrane perforation at 4 times of MIC by SEM analysis; assay type: functional, organism-based
Staphylococcus aureus [9] = assay: Antibacterial activity against methicillin-resistant Staphylococcus aureus assessed as resistance development by measuring fold increase in MIC measured after 24 days; assay type: functional; conditions: time 24 day
[10] = system: Streptococcus hyovaginalis; assay: Antibacterial activity against clinical isolate Streptococcus hyovaginalis harbouring ErmB and tetO gene assessed as inhibition of bacterial growth measured after 24 hrs by MH broth based assay; assay type: functional
Staphylococcus aureus [11] = assay: Antibacterial activity against compound-resistant/methicillin-resistant Staphylococcus aureus assessed as inhibition of bacterial growth; assay type: functional
Klebsiella pneumoniae [12] = assay: Antibacterial activity against clinical isolate Klebsiella pneumoniae harbouring mcr-8 gene assessed as inhibition of bacterial growth measured after 24 hrs by MH broth based assay; assay type: functional
Staphylococcus aureus [13] = assay: Antibacterial activity against multi-drug resistant Staphylococcus aureus sa1 infected in ip dosed BABL/C mouse assessed as survival rate measured upto 7 days; assay type: functional; conditions: sa1, 168 h, time <= 7 day
Staphylococcus aureus [14] = assay: Antibacterial activity against 4 times of MIC treated methicillin-resistant Staphylococcus aureus […] assessed as post-antibiotic sub-MIC effect by measuring time required for increase in log10 CFU/ml of bacteria at 0.25 to 0.5 times of MIC incubated for 1 hr by MH broth based assay; assay type: functional
Staphylococcus aureus [15] = assay: Antibacterial activity against clinical isolate Staphylococcus aureus harbouring IsaA, cfr and erm A gene assessed as inhibition of bacterial growth measured after 24 hrs by MH broth based assay; assay type: functional
Staphylococcus aureus [16] = assay: Antibacterial activity against methicillin-resistant Staphylococcus aureus ATCC 43300 assessed as reduction in log10 CFU at 6 times of MIC measured after 8 hrs by time-kill assay; assay type: functional
HEK293 = assay: Cytotoxicity against HEK293 cells assessed as reduction in cell viability at 7.5 to 1000 ug/ml incubated for 6 hrs by CCK-8 assay; assay type: toxicity, cell-based; conditions: human, hek293, 6 h, dose 7.5-1000 µg/ml
Staphylococcus aureus [17] = assay: Antibacterial activity against methicillin-resistant Staphylococcus aureus infected in rabbit RBC assessed as reduction in haemolysis by measuring haemoglobin level at 0.25 to 1 times of MIC by absorbance based analysis; assay type: functional, organism-based; conditions: Erythrocyte
Staphylococcus aureus [18] = assay: Antibacterial activity against clinical isolate multi-drug resistant Staphylococcus aureus sal assessed as inhibition of bacterial growth; assay type: functional
Bacillus subtilis = assay: Antibacterial activity against Bacillus subtilis ATCC 6633 assessed as inhibition of bacterial growth measured after 24 hrs by MH broth based assay; assay type: functional
Staphylococcus aureus [19] = assay: Antibacterial activity against clinical isolate Staphylococcus aureus harbouring IsaE gene assessed as inhibition of bacterial growth measured after 24 hrs by MH broth based assay; assay type: functional
Staphylococcus aureus [20] = assay: Antibacterial activity against Staphylococcus aureus ATCC 29213 assessed as inhibition of bacterial GFP expression at 1 to 4 times of MIC incubated for 1 hr by fluorescence microscopic analysis; assay type: functional, organism-based
Staphylococcus aureus [21] = assay: Antibacterial activity against clinical isolate multi-drug resistant Staphylococcus aureus sal assessed as reduction in log10 CFU at 6 times of MIC measured after 8 hrs by time-kill assay; assay type: functional
[22] = system: Streptococcus hyovaginalis; assay: Antibacterial activity against clinical isolate Streptococcus hyovaginalis harbouring IsaE and optrA gene assessed as inhibition of bacterial growth measured after 24 hrs by MH broth based assay; assay type: functional
[23] = Hemolytic activity in rabbit RBC at 200 ug/ml incubated for 5 mins by absorbance based analysis; assay type: toxicity, cell-based, Oryctolagus cuniculus, Erythrocyte; conditions: rabbit red blood cells (erythrocytes), at 200 µg/mL, read-out: Activity
Staphylococcus aureus [24] = assay: Antibacterial activity against 2 times of MIC treated methicillin-resistant Staphylococcus aureus […] assessed as post-antibiotic sub-MIC effect by measuring time required for increase in log10 CFU/ml of bacteria at 0.25 to 0.5 times of MIC incubated for 1 hr by MH broth based assay; assay type: functional
[25] = Toxicity in BABL/C mouse assessed as survival rate at 631 mg/kg, po measured upto 14 days; assay type: organism-based; conditions: in vivo, time < 14 day
Staphylococcus aureus [26] = assay: Antibacterial activity against tiamulin-resistant/methicillin-resistant Staphylococcus aureus assessed as inhibition of bacterial growth; assay type: functional
Staphylococcus aureus [27] = assay: Antibacterial activity against clinical isolate Staphylococcus aureus harbouring ArlS, norA and MgrA gene assessed as inhibition of bacterial growth measured after 24 hrs by MH broth based assay; assay type: functional
Staphylococcus aureus [28] = assay: Antibacterial activity against multi-drug resistant Staphylococcus aureus sa1 infected in BABL/C mouse assessed as reduction in bacterial load in lungs at 40 mg/kg, ip measured after 2 days; assay type: functional; conditions: time 2 day
Streptococcus pneumoniae [29] = assay: Antibacterial activity against Streptococcus pneumoniae ATCC 49619 assessed as inhibition of bacterial growth measured after 24 hrs by MH broth based assay; assay type: functional
Cell membrane = assay: Disruption of membrane integrity in Staphylococcus aureus ATCC 29213 at 1 to 6 times of MIC by DAPI/propidium iodide staining based fluorescence microscopic analysis; assay type: subcellular
Staphylococcus aureus [30] = assay: Antibacterial activity against clinical isolate Staphylococcus aureus harbouring erm C gene assessed as inhibition of bacterial growth measured after 24 hrs by MH broth based assay; assay type: functional

Question: For `C=C[C@]1(C)C[C@@H](OC(=O)CSc2cc[n+](CCCCCCC)cc2)[C@]2(C)[C@H](C)CC[C@]3(CCC(=O)[C@H]32)[C@@H](C)[C@@H]1O.[I-]`, which MIC (Streptococcus suis) is on record?
Answer: 16 µg/mL

Question: What about the MIC (Staphylococcus aureus [1]) of the same molecule?
Answer: 8 µg/mL

Question: What about the MIC (Streptococcus pneumoniae [2]) of the same molecule?
Answer: 0.5 µg/mL

Question: And the MIC (Enterococcus hirae)?
Answer: 0.25 µg/mL

Question: What about the Activity (Staphylococcus aureus [3]) of the same molecule?
Answer: Active

Question: And the Time (Staphylococcus aureus [4])?
Answer: ~2.7 h

Question: And the MIC (Enterococcus)?
Answer: 4 µg/mL

Question: What about the MIC (Klebsiella pneumoniae [5]) of the same molecule?
Answer: 4 µg/mL

Question: And the Activity (Staphylococcus aureus [6])?
Answer: 2 log10CFU/ml

Question: And the Activity (Staphylococcus aureus [7])?
Answer: Active

Question: What about the MIC (Streptococcus parasuis) of the same molecule?
Answer: 16 µg/mL

Question: And the Activity (Staphylococcus aureus [8])?
Answer: Active

Question: What about the “fold change (FC)” value (Staphylococcus aureus [9]) of the same molecule?
Answer: 8

Question: What about the MIC [10] of the same molecule?
Answer: 32 µg/mL

Question: What about the MIC (Staphylococcus aureus [11]) of the same molecule?
Answer: 0.5 µg/mL

Question: What about the MIC (Klebsiella pneumoniae [12]) of the same molecule?
Answer: 2 µg/mL

Question: And the ED50 (Staphylococcus aureus [13])?
Answer: 5.68 mg/kg

Question: And the Time (Staphylococcus aureus [14])?
Answer: 2.75 h

Question: And the MIC (Staphylococcus aureus [15])?
Answer: 4 µg/mL

Question: What about the Activity (Staphylococcus aureus [16]) of the same molecule?
Answer: 2 log10CFU/ml

Question: And the Activity (HEK293)?
Answer: Non-Toxic

Question: What about the Activity (Staphylococcus aureus [17]) of the same molecule?
Answer: Active

Question: What about the MIC (Staphylococcus aureus [18]) of the same molecule?
Answer: 8 µg/mL

Question: What about the MIC (Bacillus subtilis) of the same molecule?
Answer: 4 µg/mL

Question: And the MIC (Staphylococcus aureus [19])?
Answer: 8 µg/mL

Question: And the Activity (Staphylococcus aureus [20])?
Answer: Active

Question: What about the Activity (Staphylococcus aureus [21]) of the same molecule?
Answer: 2 log10CFU/ml

Question: What about the MIC [22] of the same molecule?
Answer: 32 µg/mL

Question: And the hemolysis at 5 min, 200 ug/ml [23]?
Answer: < 14%

Question: What about the Time (Staphylococcus aureus [24]) of the same molecule?
Answer: 2.62 h

Question: What about the survival at 336 h [25] of the same molecule?
Answer: 80%

Question: And the MIC (Staphylococcus aureus [26])?
Answer: 0.5 µg/mL

Question: And the MIC (Staphylococcus aureus [27])?
Answer: 0.063 µg/mL

Question: What about the Activity (Staphylococcus aureus [28]) of the same molecule?
Answer: 4.17 log10CFU/ml

Question: And the MIC (Streptococcus pneumoniae [29])?
Answer: < 0.031 µg/mL

Question: And the Activity (Cell membrane)?
Answer: Active

Question: And the MIC (Staphylococcus aureus [30])?
Answer: 2 µg/mL
